Experimental data: patent US9724544B2, “Vitamin D promoting sunscreen” (priority 2009, dated 2017)
Like-named read-outs stand apart in the source and are kept apart here.

Columns and labels:
[1] = cited from earlier work; for absorption in the vitamin D producing range: approximately 295 to 315 nm
[2] = UV absorption spectra (absorbance range, maxima, critical wavelength) of UV filters and other ingredients; format: physicochemical; conditions: over time under the sun
[3] = tested on: primary human keratinocytes; conditions: De Haes et al. 2005; cited from earlier work

| Compound | absorption in the vitamin D producing range [1] | further results |
| --- | --- | --- |
| O=C(c1ccc(O)cc1O)c1ccc(O)cc1O [2,2^1,4,4′-Tetrahydroxybenzophenone] | high percentage | – |
| CC(=O)C=CC=C1C2CCC(C2)C1(C)C (centres unmarked) [Digalloyl trioleate, 5-(3,3-Dimethyl 2 norbornyliden)-3penten-2-one] | high percentage | – |
| COc1ccc(C(=O)CC(=O)c2ccc(C(C)(C)C)cc2)cc1 [Avobenzone, 4-tert-butyl-4′-methoxy-dibenzoylmethane] | relative lack of absorption | ability to absorb radiation in the 290 to 315 nm range over time [2]: increases over time |
| O=S(=O)([O-])c1cc(S(=O)(=O)O)cc2[nH]c(-c3ccc(-c4nc5c(S(=O)(=O)[O-])cc(S(=O)(=O)O)cc5[nH]4)cc3)nc12.[Na+].[Na+] [Bisdisulizole disodium, disodium phenyl dibenzimidazole tetrasulfonate] | relative lack of absorption | – |
| CCCCC(CC)COC(=O)c1ccc(N(C)C)cc1 (centres unmarked) [Padimate-0, 2-ethylhexyl 4-dimethylaminobenzoate] | high percentage | – |
| CCCCC(CC)COC(=O)c1ccc(Nc2nc(Nc3ccc(C(=O)NC(C)(C)C)cc3)nc(Nc3ccc(C(=O)OCC(CC)CCCC)cc3)n2)cc1 (centres unmarked) [Iscotrizinol, diethylhexyl butamido triazone] | high percentage | – |
| CCCCCCOC(=O)c1ccccc1C(=O)c1ccc(N(CC)CC)cc1O [Uvinul A Plus, diethylamino hydroxybenzoyl hexyl benzoate] | relative lack of absorption | – |
| Cc1ccc(C=C2C(=O)C3(C)CCC2C3(C)C)cc1 (centres unmarked) [4-Methylbenzylidene camphor, 3-(4-methylbenzyliden)camphor] | high percentage | – |
| COc1ccc(C(=O)c2ccccc2)c(O)c1 [Oxybenzone, 2-hydroxy-4-methoxybenzophenone] | minimal to moderate | – |
| C=C1/C(=C\C=C2/CCC[C@]3(C)[C@@H]([C@H](C)CCCC(C)(C)O)CC[C@@H]23)C[C@@H](O)C[C@@H]1O [1,25(OH)2D3, 1,25-dihydroxyvitamin D3] | – | protection against UVB-induced DNA damage [3]: protects |
| COc1cc(O)c(C(=O)c2ccccc2)cc1S(=O)(=O)O [Sulisobenzone, 2-hydroxy-4-methoxybenzophenone-5-sulfonic acid] | minimal to somewhat moderate | – |
| CCCCC(CC)COc1ccc(-c2nc(-c3ccc(OC)cc3)nc(-c3ccc(OCC(CC)CCCC)cc3O)n2)c(O)c1 (centres unmarked) [Bemotrizinol, bis-ethylhexyloxyphenol methoxyphenyl triazine] | high percentage | – |
| 4-Bis(polyethoxy)para-aminobenzoic acid polyethoxyethyl ester [PEG-25 PABA] | minimal absorption | – |
| COc1ccc(C=CC(=O)OCCC(C)C)cc1 [Isoamyl p-methoxycinnamate] | high percentage | – |
| CCOCCOC(=O)C=Cc1ccc(OC)cc1 [Cinoxate, 2-ethoxyethyl p-methoxycinnamate] | high percentage | – |
| Nc1ccc(C(=O)O)cc1 [Aminobenzoic acid, 4-aminobenzoic acid] | high percentage | maximum absorbance ([1]; dissolved in alcohol): 289 nm; maximum absorbance ([1]; dissolved in water): 278 nm |
| CCCCC(CC)COC(=O)c1ccccc1O (centres unmarked) [Octisalate, 2-ethylhexyl salicylate] | minimal to moderate | – |
| CCCCCOC(=O)c1ccc(N(C)C)cc1 [Padimate-A, amyl p-dimethylaminobenzoate] | high percentage | – |
| CCCCC(CC)COC(=O)C(C#N)=C(c1ccccc1)c1ccccc1 (stereo not drawn) [Octocrylene, 2-ethylhexyl alpha-cyano-beta-phenylcinnamate] | minimal to moderate | – |
| COc1ccc(C(=O)c2ccc(C)cc2)c(O)c1 [Mexenon, 2-hydroxy-4-methoxy-4′-methyl-benzophenone] | minimal to moderate | – |
| COc1ccc(C(=O)c2ccc(OC)cc2O)c(O)c1 [2,2′-Dihydroxy-4,4′-dimethoxybenzophenone] | high percentage | – |
| O=C(c1ccccc1)c1ccc(O)cc1O [2,4-Dihydroxybenzophenone] | high percentage | – |
| CCCCC(CC)COC(=O)c1ccc(Nc2nc(Nc3ccc(C(=O)OCC(CC)CCCC)cc3)nc(Nc3ccc(C(=O)OCC(CC)CCCC)cc3)n2)cc1 (centres unmarked) [Ethylhexyl Triazone] | high percentage | – |
| CCCCCCCCOc1ccc(C(=O)c2ccccc2)c(O)c1 [2-Hydroxy-4-(Octyloxy)Benzophenone] | high percentage | – |
| CC1CC(OC(=O)c2ccccc2O)CC(C)(C)C1 (centres unmarked) [Homosalate, 3,3,5-trimethylcyclohexyl salicylate] | minimal to moderate | – |
| Nc1ccc(C(=O)OCC(O)CO)cc1 (centres unmarked) [Glyceryl Aminobenzoate, glyceryl 1-(4-aminobenzoate)] | high percentage | – |
